Drawing on EPA's ToxValDB 9.5 (doi:10.2903/j.efsa.2017.4790), this text covers LD50, NOAEL and NOEC for three compounds.

The test system of one series is Apis mellifera. The following applies: acute, mortality.
The test system of a further series is Colinus virginianus. The following applies: acute, oral, mortality.
In another series the test system is Rattus norvegicus. The conditions noted are these: for LD50: acute, mortality.
For another series, the system named is Folsomia candida. The conditions noted are these: chronic/long-term; mortality.
For another series, the system named is Canidae. The conditions noted are these: chronic; duration: 1 years; oral; Dog Other; organ weight.
A further series concerns Daphnia magna. The conditions noted are these: chronic/long-term; duration: 21 days; reproduction.
The test system of the next series is Oncorhynchus mykiss. The conditions noted are these: chronic/long-term; duration: 21 days; behavior.

Each structure is given as a SMILES string. Some results are limits rather than exact numbers.

What is called NOAEL is the highest dose or exposure tested at which no adverse effect was seen. Regarding `CCCC(=O)Oc1c(Br)cc(C#N)cc1Br` [Bromoxynil butyrate], the LD50 in the series with Apis mellifera (dermal) is 199 µg/piece; in the series on Apis mellifera (oral, unspecified) it was 76.4 µg/piece; in the series with Colinus virginianus (diet), more than 190 mg/kg-day; in the series with Colinus virginianus, 420 mg/kg-day; in the series with Rattus norvegicus (M/F), 116 mg/kg-day. In addition, the NOAEL with Anas platyrhynchos (chronic/long-term) came out at 15.9 mg/kg-day. Further, the NOEC in the series with Folsomia candida was found to be 125 mg/kg.
On to `CCCCCCC(=O)Oc1c(Br)cc(C#N)cc1Br` [Bromoxynil heptanoate], for which the LD50 with Apis mellifera (dermal) was more than 201 µg/piece; in the series with Apis mellifera (oral, unspecified) it was more than 201 µg/piece; in the series with Colinus virginianus (diet) it was 1900 mg/kg-day; with Colinus virginianus, 379 mg/kg-day; in the series on Rattus norvegicus (F), 292 mg/kg-day. In addition, the NOAEL was found to be 4 mg/kg-day with Rattus norvegicus (developmental, development); 15.9 mg/kg-day in the series with Anas platyrhynchos (reproductive); 0.3 mg/kg-day with Canidae. For the same compound, in the series on Folsomia candida, the NOEC came to 70.5 mg/kg.
In the case of `N#Cc1cc(Br)c(O)c(Br)c1` [Bromoxynil], the no-observed-adverse-effect level (NOAEL) turned out to be 4 mg/kg-day with Rattus norvegicus (developmental, development); 3.39 mg/kg-day in the series with Rattus norvegicus (reproduction developmental, body weight); 10.9 mg/kg-day with Anas platyrhynchos (reproductive); 0.3 mg/kg-day in the series with Canidae. Further, the values for the NOEC in the series on Daphnia magna, with Oncorhynchus mykiss and in the series on Folsomia candida were 3.1 mg/L, 2 mg/L and 56 mg/kg, respectively.
